Experiments:
[1] = system: Sulfate Reducing Bacteria; assay: MICkit microbiological testing of pipe water and scrapings, sulfate reducing bacteria; format: cell-based
Protocol: (§1) One end cap of the pipe was removed and the contaminated water poured out of the pipe and a pre-sterilization sample of the water and scrapings from the interior pipe wall were taken under sterile conditions for microbiological testing employing a MICkit™ supplied by Bioindustrial Technologies, Inc., Georgetown, Tex. The microbiological samples were incubated for three weeks at 35° C. and observed for microbiological growth.
(§2) Steam was then injected into the test pipe by opening the ball valve slowly with the steam pressure at 30 lbs pressure (135° C.). The temperature at the end of the test pipe rapidly rose to 94° C. and then appeared to remain nearly constant. The ball valve was then closed and the pipe cooled to room temperature. The condensate water and scrapings from the interior of the test pipe were collected by removal of the pipe from the adapter under sterile conditions. The samples so collected were microbiologically tested as above.
(§3) The end cap was then replaced with a ball valve and the steam sterilization was repeated. The ball valve at the end of the pipe was opened slightly to allow condensate and live steam to escape. The temperature at the end of the pipe rapidly rose to 110° C. The test was terminated by closing the ball valves and allowing the pipe to cool to room temperature. The pipe was again sampled for microbiological testing as above.
(§4) Microbiologically contaminated water was obtained from a “dead end” water feed-line to a fire protection system and was assayed microbiologically using the MICkit™ giving the following results after only 2 days of incubation at 35° C.:
(§5) The steam was allowed to slowly enter the pipe by regulating the input ball valve with the outlet ball valve open. Steam flowed through the pipe, heating it rapidly to near 100° C. The outlet ball valve was then nearly closed allowing the steam pressure in the pipe to increase. The temperature at the end of the pipe reached 135° C. and was kept there for five minutes. The inlet and outlet ball valves were closed and the pipe with the valves closed was removed and cooled in a stream of water. A small amount of sterile water (autoclaved at 121° C. for 15 minutes) was added to the sterilized pipe and the pipe raised, lowered and rotated to rinse the inside of the pipe system. The pipe was then opened and the water and scrapings from the side of the pipe were taken using sterile techniques for microbiological analysis.
(§6) The drained pipe was then sterilized as in Example 2 (per FIG. 2) using steam and a temperature of 135° C. by controlling the inlet and outlet ball valves. The ball valves at the ends of the pipe were then closed, the pipe removed from the test station and cooled with water. A small amount of sterile water was introduced and the inside of the pipe rinsed with it for several minutes. The pipe was then opened and the water and scrapings from the side of the pipe taken for microbiological analysis.

Low Nutrient Bacteria = assay: MICkit microbiological testing of pipe water and scrapings, low nutrient bacteria; format: cell-based
Protocol: as §1, §2, §3, §4, §5, §6

[2] = system: aerobic bacteria (colony forming units); assay: Aerobic plate count of pipe water and scrapings; format: cell-based
Protocol: Microbiologically contaminated water was obtained from a “dead end” water feed-line to a fire protection system and was assayed microbiologically using the […] giving the following results after only 2 days of incubation at 35° C.: [table] The steam was allowed to slowly enter the pipe by regulating the input ball valve with the outlet ball valve open. Steam flowed through the pipe, heating it rapidly to near 100° C. The outlet ball valve was then nearly closed allowing the steam pressure in the pipe to increase. The temperature at the end of the pipe reached 135° C. and was kept there for five minutes. The inlet and outlet ball valves were closed and the pipe with the valves closed was removed and cooled in a stream of water. A small amount of sterile water (autoclaved at 121° C. for 15 minutes) was added to the sterilized pipe and the pipe raised, lowered and rotated to rinse the inside of the pipe system. The pipe was then opened and the water and scrapings from the side of the pipe were taken using sterile techniques for microbiological analysis. The drained pipe was then sterilized as in Example 2 (per FIG. 2) using steam and a temperature of 135° C. by controlling the inlet and outlet ball valves. The ball valves at the ends of the pipe were then closed, the pipe removed from the test station and cooled with water. A small amount of sterile water was introduced and the inside of the pipe rinsed with it for several minutes. The pipe was then opened and the water and scrapings from the side of the pipe taken for microbiological analysis.

[3] = Analysis of residual sodium hypochlorite in water standing in iron pipe; format: physicochemical; details: 50 ppm in potable tap water in iron pipe, ambient temperature, after 24 hours
Source text: The sterilized pipe from Example 2 was then filled with potable tap water containing 50 ppm sodium hypochlorite and allowed to stand at ambient temperature. The sodium hypochlorite, being an oxidizing agent, rapidly dissipated when in contact with the interior iron pipe surface.

Iron Related Bacteria = assay: MICkit microbiological testing of pipe water and scrapings, iron related bacteria; format: cell-based
Protocol: as §1, §2, §3, §4, §5, §6

Acid Producing Bacteria = assay: MICkit microbiological testing of pipe water and scrapings, acid producing bacteria; format: cell-based
Protocol: as §1, §2, §3, §4, §5, §6

[4] = Example 3, steam-sterilized pipe filled with potable tap water containing 50 ppm sodium hypochlorite, 24 hours plus seven days at ambient temperature
[5] = Example 5, sterilized pipe recontaminated 16 hours with dead end water, then tap water with 50 ppm sodium hypochlorite overnight, incubation 15 days
[6] = Example 1, contaminated 1-inch sprinkler pipe, steam, pipe end 94° C., capped end, incubated three weeks at 35° C.
[7] = Example 1, steam repeated with outlet ball valve, pipe end 110° C., incubated three weeks at 35° C.
[8] = Example 2, new pipe infected with dead end water, steam 135° C. for five minutes, incubation 15 days
[9] = Example 4, chemically cleaned contaminated pipe, steam 135° C., after 15 days

With `OCl` [sodium hypochlorite, reference compound] as the compound, how does the SRB [1, 4] read?
The SRB was “negative”.

What about the SRB [1, 5] of the same compound?
The SRB was “negative”.

What about the LNB (Low Nutrient Bacteria; [4]) of the same compound?
Its LNB is “negative”.

And the LNB (Low Nutrient Bacteria; [5])?
Its LNB is “positive”.

What about the APC [2, 4] of the same compound?
The APC was < 1 colony forming units per mil.

What about the APC [2, 5] of the same compound?
The APC was < 1 colony forming units per mil.

What about the “sodium hypochlorite remaining in the water” value [3] of the same compound?
The value was 0 ppm.

What about the IRB (Iron Related Bacteria; [4]) of the same compound?
The IRB was “negative”.

And the IRB (Iron Related Bacteria; [5])?
Its IRB is “negative”.

What about the APB (Acid Producing Bacteria; [4]) of the same compound?
Its APB is “negative”.

What about the APB (Acid Producing Bacteria; [5]) of the same compound?
Its APB is “negative”.

With `O` [steam] as the compound, how does the SRB [1, 6] read?
Its SRB is “Negative”.

And the SRB [1, 7]?
The SRB was “Negative”.

What about the SRB [1, 8] of the same compound?
The SRB was “negative”.

What about the SRB [1, 9] of the same compound?
Its SRB is “negative”.

What about the LNB (Low Nutrient Bacteria; [6]) of the same compound?
The LNB was “Negative”.

What about the LNB (Low Nutrient Bacteria; [7]) of the same compound?
The LNB was “Negative”.

What about the LNB (Low Nutrient Bacteria; [8]) of the same compound?
The LNB was “negative”.

And the LNB (Low Nutrient Bacteria; [9])?
The LNB was “negative”.

And the APC [2, 8]?
Its APC is < 1 colony forming units per mil.

And the APC [2, 9]?
The APC was < 1 colony forming units per mil.

And the IRB (Iron Related Bacteria; [6])?
The IRB was “Negative”.

What about the IRB (Iron Related Bacteria; [7]) of the same compound?
The IRB was “Negative”.

What about the IRB (Iron Related Bacteria; [8]) of the same compound?
Its IRB is “negative”.

And the IRB (Iron Related Bacteria; [9])?
Its IRB is “negative”.

And the APB (Acid Producing Bacteria; [6])?
The APB was “Negative”.

What about the APB (Acid Producing Bacteria; [7]) of the same compound?
Its APB is “Negative”.

And the APB (Acid Producing Bacteria; [8])?
The APB was “negative”.

And the APB (Acid Producing Bacteria; [9])?
The APB was “negative”.
